# Where two headings read alike, the source gives them in different places.
# How the values were obtained:
# Peronospora parasitica = test: Example A: in vivo test on Peronospora parasitica (downy mildew on white cabbage); conditions: cabbage plants sprayed 24 hours before inoculation, scored after 5 days
# Procedure: In Vivo Test on Peronospora Parasitica (Downy Mildew on White Cabbage) An aqueous suspension of the active substance was prepared by homogenization of a mixture of acetone/Tween (dispersant)/dimethyl sulphoxide (DMSO) and subsequent dilution with water to the desired concentration. Cabbage plants (variety: Eminence) are sown in cultivation dishes on a peat-pozzolanic earth substrate (50/50) at 18-20° C. and sprayed at the cotyledon stage with the aqueous suspension described above. As a control, plants are sprayed with an aqueous solution with no active substance. After 24 hours, the plants are inoculated by spraying with an aqueous suspension of Peronospora parasitica spores (50,000 spores per ml). The spores are derived from infected plants. The inoculated cabbage plants are incubated for 5 days at ca. 20° C. in a moist atmosphere. After 5 days, they are scored in comparison with the control plants.
# Pyrenophora teres = test: Example E: in vivo test on Pyrenophora teres (barley net blotch disease); conditions: 500 ppm; barley plants sprayed 24 hours before inoculation; scored after 12 days
# Procedure: In Vivo Test on Pyrenophora Teres (Barley Net Blotch Disease) An aqueous suspension of the active substance was prepared by homogenization of a mixture of acetone/Tween/dimethyl sulphoxide and subsequent dilution with water to the desired concentration. Barley plants (variety: Plaisant) are sown in cultivation dishes on a peat-pozzolanic earth substrate (50/50) at 12° C. and sprayed at the first-leaf stage (10 cm size) with the aqueous suspension described above. As a control, plants are sprayed with an aqueous solution with no active substance. After 24 hours the plants are inoculated by spraying with an aqueous suspension of Pyrenophora teres spores (12,000 spores per ml). The spores are derived from a 12 day-old culture. […] After 12 days they are scored in comparison with the control plants.
# Fusarium proliferatum = test: Example I: production of fumonisin FB1 by Fusarium proliferatum (microtitre plates); assay type: cell-based; conditions: for inhibition at 50 µM: 120 h
# Sphaerotheca fuliginea [1] = test: Example L: in vivo test on Sphaerotheca fuliginea (powdery mildew on cucumber/protective); conditions: Podosphaera fuliginea, 168 h, cucumber, protective, assessment 7 days after inoculation, read-out: % Wirkungsgrad
# In short: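 Young cucumber plants sprayed at stated dosage with compound in DMF/alkylaryl polyglycol ether emulsifier diluted in water; inoculated with S. fuliginea spores one day later. Kept in greenhouse at 70% relative humidity, 23° C; protective activity assessed 7 days after inoculation.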
# Venturia inaequalis = test: Example O: in vivo test on Venturia inaequalis (apple scab/protective); conditions: 240 h, protective, assessment 10 days after inoculation, read-out: % Wirkungsgrad
# In short: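 Young plants received a preventive spray of compound formulated as an emulsifier-containing aqueous dilution at the given application rate, then were inoculated with apple scab fungus. Disease was scored 10 days post-inoculation.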
# Botrytis cinerea = test: Example P: in vivo test on Botrytis cinerea (gray mould on bean/protective); conditions: 48 h, bean, protective, 250 ppm active substance, assessed 2 days after inoculation, read-out: % Wirkungsgrad (activity level)
# In short: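 Infection blotch size on leaves was scored 2 days after placing 2 Botrytis-colonised agar pieces per leaf. Inoculation followed drying of a protective spray applied to young plants at the stated dosage. Spray was prepared by diluting compound with solvent and alkylaryl polyglycol ether emulsifier in water.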
# Pyricularia oryzae = test: whole plant or invertebrate; assay type: in vivo; conditions: 120 h, read-out: % Activity level
# Rhizoctonia solani = test: Example W: in vivo test on Rhizoctonia solani (sheath blight in rice/protective); conditions: 96 h, rice, protective, 250 ppm active substance, assessed 4 days after inoculation, read-out: % Activity level
# Procedure: Solvent: 28.5 parts by weight acetone Emulsifier: 1.5 parts by weight alkylaryl polyglycol ethers For the preparation of a suitable active substance preparation, 1 part by weight of active substance is mixed with the stated quantities of solvent and emulsifier and the concentrate is diluted to the desired concentration with water. For the testing for protective activity, young rice plants are sprayed with the active substance preparation at the stated application dosage. One day after the treatment, the plants are inoculated with hyphae of Rhizoctonia solani. […] 4 days after the inoculation, the assessment takes place.
# Cochliobolus miyabeanus = test: Example X: in vivo test on Cochliobolus miyabeanus (brown spot disease, rice/protective); conditions: Bipolaris oryzae, 96 h, read-out: % Activity level
# Sphaerotheca fuliginea [2] = test: Example D: in vivo test on Sphaerotheca fuliginea (powdery mildew on cucumber); conditions: Podosphaera fuliginea, 288 h, cucumber plants sprayed 24 hours before inoculation, scored after 12 days, read-out: % Wirkungsgrad
# In short: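 Scoring took place 12 days after spore inoculation (100,000 spores/ml, at ca. 20/25° C., 60/70% RH) and was made against plants sprayed without active substance. Inoculation followed by 24 hours a spray of water-diluted acetone/Tween/DMSO compound suspension onto Z10 cotyledon-stage cucumbers.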
# Puccinia recondita = test: Example F: in vivo test on Puccinia recondita (wheat brown rust); conditions: 240 h, wheat plants sprayed 24 hours before inoculation, scored after 10 days, read-out: % Wirkungsgrad
# Procedure: In Vivo Test on Puccinia Recondita (Wheat Brown Rust) An aqueous suspension of the active substance was prepared by homogenization of a mixture of acetone/Tween/dimethyl sulphoxide and subsequent dilution with water to the desired concentration. Wheat plants (variety: Scipion) are sown in cultivation dishes on a peat-pozzolanic earth substrate (50/50) at 12° C. and sprayed at the first-leaf stage (10 cm size) with the aqueous suspension described above. As a control, plants are sprayed with an aqueous solution with no active substance. After 24 hours the plants are inoculated by spraying with an aqueous suspension of Puccinia recondita spores (100,000 spores per ml). The spores are derived from a 10 day-old infected wheat crop and are suspended in water with 2.5 ml/l Tween. […] After 10 days they are scored in comparison with the control plants.
# Alternaria solani = test: Example M: in vivo test on Alternaria solani (leaf blotch disease/tomato/protective); conditions: 168 h, tomato, protective, 500 ppm active substance, assessed 7 days after inoculation, read-out: % Wirkungsgrad (activity level)
# In short: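 Alternaria solani infection on tomato scored 7 days post-inoculation. Before inoculation, young plants received a protective spray at the stated application dose; formulation was compound mixed with N,N-dimethylformamide and emulsifier, water-diluted.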
# Plasmopara viticola = test: Example N: in vivo test on Plasmopara viticola (downy mildew, vine/protective); conditions: 144 h, vine, protective, assessment 6 days after inoculation, read-out: % Wirkungsgrad
# In short: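 Assessment of downy mildew on vines took place 6 days post-inoculation, after 1 day of moist incubation. Before infection, the young plants received a protective spray of compound emulsified with alkylaryl polyglycol ethers and diluted with water to the stated application rate.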
# Fusarium graminearum = test: microbe, parasite or virus in culture; assay type: cell-based
# [3] = Fusarium proliferatum growth, OD 620, 5 days, read-out: % Inhibition des Pilzwachstums bei 50 μM
# [4] = Fusarium proliferatum, 5 days at 20° C., HPLC-MS/MS, read-out: % Inhibition der FB1 produktion bei 50 μM
# [5] = LogPA (logP of the stated pure compound or, in a mixture, of the main isomer, 1-substituted 3-aryl-1H-pyrazole)
compound,measurement,setting,value
CC(C)C(=O)Nc1cc(-c2cn(C3CCCCO3)nc2-c2ccc(F)cc2)ccn1 (centres unmarked) [Compound 21],% Wirkungsgrad,Peronospora parasitica; 500 ppm,100%
same,% Wirkungsgrad,Pyrenophora teres,73%
same,% Inhibition der FB1 produktion bei 50 μM,"Fusarium proliferatum; 5 days at 20° C., HPLC-MS/MS",100%
same,% Inhibition des Pilzwachstums bei 50 μM,"Fusarium proliferatum; Fusarium proliferatum growth, OD 620, 5 days",55%
O=C(Nc1cc(-c2cn(CC(F)F)nc2-c2ccc(F)cc2)ccn1)C1CC1 [Compound 217],inhibition at 50 µM,Fusarium proliferatum; [3],97%
same,inhibition at 50 µM,Fusarium proliferatum; [4],100%
same,pest or weed control at 500 ppm,Sphaerotheca fuliginea [1],100%
same,pest or weed control at 100 ppm,Venturia inaequalis,98%
same,pest or weed control at 250 ppm,Botrytis cinerea,95%
same,pest or weed control at 250 ppm,Pyricularia oryzae,85%
same,pest or weed control at 250 ppm,Rhizoctonia solani,100%
same,pest or weed control at 250 ppm,Cochliobolus miyabeanus,85%
same,chromatographic logP,physchem; LogPA,2.07
Fc1ccc(-c2nn(CC3CC3)cc2-c2ccncc2)cc1 [Compound 126],pest or weed control at 500 ppm,"Peronospora parasitica; Hyaloperonospora parasitica, 120 h, read-out: % Wirkungsgrad",89%
same,pest or weed control at 500 ppm,Sphaerotheca fuliginea [2],85%
same,pest or weed control at 500 ppm,Puccinia recondita,75%
same,pest or weed control at 500 ppm,Sphaerotheca fuliginea [1],95%
same,pest or weed control at 500 ppm,Alternaria solani,95%
same,pest or weed control at 100 ppm,Plasmopara viticola,81%
same,pest or weed control at 100 ppm,Venturia inaequalis,98%
same,pest or weed control at 250 ppm,Botrytis cinerea,100%
same,chromatographic logP,physchem; [5],1.33
O=C(Nc1cc(-c2cn(CCCl)nc2-c2ccc(F)cc2)ccn1)C1CC1 [Compound 221],inhibition at 50 µM,Fusarium proliferatum; [3],99%
same,inhibition at 50 µM,Fusarium proliferatum; [4],100%
same,inhibition at 50 µM,"Fusarium graminearum; 72 h, read-out: % Inhibition des Pilzwachstums bei 50 μM",100%
same,inhibition at 50 µM,"Fusarium graminearum; 168 h, read-out: % Inhibition der DON/AcDON produktion bei 50 μM",100%
same,pest or weed control at 500 ppm,Sphaerotheca fuliginea [1],100%
same,pest or weed control at 100 ppm,Venturia inaequalis,91%
same,pest or weed control at 250 ppm,Botrytis cinerea,100%
same,pest or weed control at 250 ppm,Pyricularia oryzae,92%
same,pest or weed control at 250 ppm,Rhizoctonia solani,100%
same,pest or weed control at 250 ppm,Cochliobolus miyabeanus,80%
same,chromatographic logP,physchem; LogPA,2.1
NC(=O)c1cc(-c2cn(C3CCCCO3)nc2-c2ccc(F)cc2)ccn1 (centres unmarked) [Compound 93],pest or weed control at 500 ppm,Puccinia recondita,83%
same,chromatographic logP,physchem; [5],2.46
